# Laboratory results from US12508280B2, “Formulations for improving gut health” (DSM IP ASSETS B.V., priority 2018, dated 2025).
# Columns and labels:
# HT29 cells = experiment: HT29 cell culture, quantification of immunological biomarkers; format: cell-based; conditions: effluent from 24 h fermentation, vs corresponding control
# [1] = tested on: fecal suspension from the selected donor; experiment: Intestinal batch fermentation, SCFA production (first set); format: cell-based, human; conditions: after 48 h fermentation, vs corresponding control
# How it was run: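 Test ingredients were added to modified nutritional medium inoculated with fresh donor fecal suspension. Incubation ran 48 h at 37° C, 90 rpm, anaerobic, with ethanol blanks and single repeats. SCFA were sampled at 0, 6, 24 and 48 h, diethyl ether-extracted and quantified by GC-FID against a 2-methyl hexanoic acid internal standard; molar sums were taken as unbranched, branched and total SCFA.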
# [2] = tested on: Co-cultures of Caco-2 and HT29-MTX-E12 cells; experiment: Barrier integrity, leaky gut model, basolateral stressor 5% EtOH; format: cell-based; conditions: 0.2× dose, vs corresponding control; for Lucifer yellow, basolateral induction of leaky gut cellular model: 48 h fermentation samples; for TEER, basolateral induction of leaky gut cellular model: 48 h minus 0 h fermentation samples
# Method: Since ethanol is known to have antimicrobial effects, two blanks for each type of stock solution were included. As a source of the microbial community, a freshly prepared fecal suspension from the selected donor was added to the reactors. […] All tests, except the blanks, were performed in single repetition, resulting in 40 independent incubations, as specified in Table 1. Incubation conditions of the pre-screening experiment and the final experiment were 48 h at 37° C., under shaking (90 rpm) and anaerobic conditions. […] Effluent samples were collected from each fermentation flask before (0 h fermentation) and after fermentation (48 h fermentation), sterilized by filtering through 0.22 μm filters and used for short chain fatty acids (SCFA), quantification of immunological biomarkers and in vitro analysis in cell culture systems.
# Co-cultures of Caco-2 and HT29-MTX-E12 cells were used to assess the protective effect of the supernatants before (0 h) and after fermentation (48 h) for both sets of in vitro experiments above.
# CaCo-2 ECACC 86010202 and HT29-MTX-E12 ECACC 12040401 cells (both from European Collection of Cell Cultures, Salisbury, UK) were both cultured at 37° C., in atmosphere of 5% CO2 in DMEM medium supplemented with 4.5 g/L D-Glucose, 4 mM L-Glutamine, 1 mM Sodium Pyruvate, 1% MEM Non-Essential Amino Acids, 50 μg/mL Gentamicin (Life Technologies Europe B.V., Zug, Switzerland) and 10% heat-inactivated FBS (Sigma-Aldrich, Buchs, Switzerland). Sub-confluent cells were trypsinized using 0.25% Trypsin/EDTA (Life Technologies Europe B.V., Zug, Switzerland) and passaged at a ratio of 1:5-1:10 twice a week. Cells between passages 55 and 85 were used for this study.
# Cells were seeded at a density of 20000 cells/well in a 7:3 ratio (Caco-2:HT29-MTX-E12) in Corning HTS Transwell-24 system PET membranes, 0.4 μM pore size, cell growth area 0.33 cm2/well (Corning BV, Amsterdam, Netherlands) and cultured as described above. Media was changed every second to third day.
# For both sets of in vitro experiments, the integrity of cell monolayers after the stressor test was evaluated by both TEER values and by measuring the transport of Lucifer yellow from apical to basolateral compartments (Leaky gut model). […] The inserts were rinsed twice with HBSS using a reservoir tray, 100 μl HBSS were then added to the apical site of the inserts and subsequently moved to new wells with fresh HBSS and allowed to equilibrate at 37° C. for 60 min in the incubator followed by TEER measurement to obtain baseline resistance readings. […]
# [3] = tested on: Co-cultures of Caco-2 and HT29-MTX-E12 cells; experiment: Barrier integrity, leaky gut model, apical stressor Rhamnolipids; format: cell-based; conditions: vs corresponding control; for Lucifer yellow, apical induction of leaky gut cellular model: 48 h fermentation samples; for TEER, apical induction of leaky gut cellular model: 48 h minus 0 h fermentation samples
compound,measurement,setting,value
"Cc1cc2nc3c(=O)[nH]c(=O)nc-3n(C[C@H](O)[C@H](O)[C@H](O)CO)c2cc1C [Vitamin B2, riboflavin]",GROa-CXCL1 production by HT29 cells,HT29 cells; 1× dose,increase GROa-CXCL1 production
same,IL-8 production by HT29 cells,HT29 cells; 1× dose,increase IL-8 production
same,GROa-CXCL1 production by HT29 cells,HT29 cells; 5× dose,increase GROa-CXCL1 production
same,IL-8 production by HT29 cells,HT29 cells; 5× dose,increase IL-8 production
same,butyrate production,[1]; 5× dose,increase butyrate production
same,"Lucifer yellow, basolateral induction of leaky gut cellular model",[2],decrease Lucifer yellow
same,"TEER, basolateral induction of leaky gut cellular model",[2],increase TEER
same,"Lucifer yellow, apical induction of leaky gut cellular model",[3]; 0.2× dose,decrease Lucifer yellow
same,"TEER, apical induction of leaky gut cellular model",[3]; 0.2× dose,increase TEER
Vitamin E,IL-8 production by HT29 cells,HT29 cells; 0.2× dose,increase IL-8 production
same,MIP3A-CCL20 production by HT29 cells,HT29 cells; 0.2× dose,increase MIP3A-CCL20 production
same,IL-8 production by HT29 cells,HT29 cells; 1× dose,increase IL-8 production
same,MIP3A-CCL20 production by HT29 cells,HT29 cells; 1× dose,increase MIP3A-CCL20 production
same,GROa-CXCL1 production by HT29 cells,HT29 cells; 5× dose,increase GROa-CXCL1 production
same,IL-8 production by HT29 cells,HT29 cells; 5× dose,increase IL-8 production
same,MIP3A-CCL20 production by HT29 cells,HT29 cells; 5× dose,increase MIP3A-CCL20 production
same,acetate production,[1]; 1× dose,increase acetate production
same,propionate production,[1]; 1× dose,increase propionate production
same,total SCFAs production,[1]; 1× dose,increase total SCFAs production
same,acetate production,[1]; 5× dose,increase acetate production
same,"Lucifer yellow, basolateral induction of leaky gut cellular model",[2],decrease Lucifer yellow
same,"TEER, basolateral induction of leaky gut cellular model",[2],increase TEER
same,"TEER, apical induction of leaky gut cellular model",[3]; 0.2× dose,increase TEER
same,"Lucifer yellow, apical induction of leaky gut cellular model",[3]; 1× dose,decrease Lucifer yellow
same,"TEER, apical induction of leaky gut cellular model",[3]; 1× dose,increase TEER
same,"Lucifer yellow, apical induction of leaky gut cellular model",[3]; 5× dose,decrease Lucifer yellow
same,"TEER, apical induction of leaky gut cellular model",[3]; 5× dose,increase TEER
